{"source": "patent US20140314867A1", "about": "“VITAMIN K2 MICROSPHERES” (Medical and Pharmaceutical Industry Technology and …, priority 2013, published 2014)", "assay_type_in_all_cases": "cell-based, human", "key": {"MG-63 cells [1]": {"tested_on": "MG-63 cells", "assay": "Alkaline phosphatase (ALP) activity test in co-cultured MG-63 cells", "description": "0.0001 g, 0.0005 g, 0.005 g, and 0.05 g of VK2 was fine weighed and sterilized by UV light in a sterile hood overnight, then added into 50 ml centrifuge tubes. 50 ml of H-DMEM containing 10% FBS was then added to prepare cell culture medium with different VK2 concentrations: 0 mg/mL, 0.002 mg/mL, 0.01 mg/mL, 0.1 mg/mL, and 1 mg/mL.\nH-DMEM containing 10% FBS was used to adjust the concentration of MG-63 cell solution to 1×10^4 cells/ml. 1 ml/well of cell solution was seeded to a 24-well plate and incubated in an incubator for 1 day to make cells adhere. Then, the culture medium was removed, 1 ml/well of cell culture medium with different VK2 concentration were added respectively and incubated for 1, 3, and 7 days. Cell viability analysis (MTT) and alkaline phosphatase activity assay (ALP) were conducted. Cell morphology was observed by an inverted microscope and recorded in photographs. […]\nThe measurement of ALP is described below. After being cultured for 1 day, the cell culture medium was removed from the 24-well cell culture plate. Then, the 24-well cell culture plate was washed twice by PBS. After the PBS was removed, 200 μl/well of ALP extraction reagent pNPP65 (p-Nitrophenylphosphate) was added to the 24-well culture plate and reacted in an incubator (37° C., 5% CO2) in the dark for 30 minutes. Then, 50 μl of 1N sodium hydroxide was added to stop the reaction. 250 μl/well of supernatant was suctioned to a 96-well plate to detect the OD value at 405 nm by an ELISA reader. Activity of alkaline phosphatase (ALP) can be calculated by the formula below: […]\nIn this formula, A is the absorbance of a sample at 405 nm; Vt is the total reaction volume, 0.25 ml; Vs is the sample volume, 0.05 ml; t is the reaction time after adding pNPP65 (p-Nitrophenylphosphate), 30 minutes; c is mmol extinction coefficient of pNPP65 (p-Nitrophenylphosphate), 18.6 mM^−1 cm^−1; 1 is the optical path of the cuvette, 1 cm; 1000 is to convert the U/ml to U/l."}, "MG-63 cells [2]": {"tested_on": "MG-63 cells", "assay": "Alkaline phosphatase (ALP) activity test in co-cultured MG-63 cells", "conditions": "0.02 mg/mL"}, "MG-63 cells [3]": {"tested_on": "MG-63 cells", "assay": "Cell viability analysis (MTT), cell number of co-cultured MG-63 cells", "description": "0.0001 g, 0.0005 g, 0.005 g, and 0.05 g of VK2 was fine weighed and sterilized by UV light in a sterile hood overnight, then added into 50 ml centrifuge tubes. 50 ml of H-DMEM containing 10% FBS was then added to prepare cell culture medium with different VK2 concentrations: 0 mg/mL, 0.002 mg/mL, 0.01 mg/mL, 0.1 mg/mL, and 1 mg/mL. H-DMEM containing 10% FBS was used to adjust the concentration of MG-63 cell solution to 1×10^4 cells/ml. 1 ml/well of cell solution was seeded to a 24-well plate and incubated in an incubator for 1 day to make cells adhere. Then, the culture medium was removed, 1 ml/well of cell culture medium with different VK2 concentration were added respectively and incubated for 1, 3, and 7 days. Cell viability analysis (MTT) and alkaline phosphatase activity assay (ALP) were conducted. Cell morphology was observed by an inverted microscope and recorded in photographs. 0.01 g of 0%, 0.01%, 0.1%, and 1.0% VK2MS was fine weighed and sterilized by UV light in a sterile hood overnight, then added into 50 ml centrifuge tubes. 50 ml of H-DMEM containing 10% FBS was then added to prepare cell culture medium with different VK2 concentrations. H-DMEM containing 10% FBS was used to adjust the concentration of MG-63 cell solution to 1×10^4 cells/ml. 1 ml/well of cell solution was seeded to a 24-well plate and incubated in an incubator for 1 day to make the cells adhere. Then, the culture medium was removed, 1 ml/well of cell culture medium with different VK2 concentration were added respectively and incubated for 1, 3, and 7 days. In addition, the cell culture medium without microspheres (MS) was added 1 ml/well and incubated for 1, 3, and 7 days as control groups. Subsequently, cell viability analyse (MTT) and alkaline phosphatase activity assays (ALP) were conducted. Cell morphology was observed by an inverted microscope and recorded by photographs. First, MTT was prepared as a 5 mg/mL reaction solution by PBS, then filtered by a 0.22 μm filter. 10% MTT reagent was prepared by H-DMEM, and then stored in the dark. After being cultured for 1 day, the cell culture medium was removed from the 24-well cell culture plate. The 24-well cell culture plate was washed twice by PBS. After the PBS was removed, 1 ml/well of 10% MTT reagent was added to the culture plate and reacted in an incubator (37° C., 5% CO2) in the dark for 4-5 hours. Purple crystal particles were produced at the bottom of culture plate after the reaction. The reactive solution was removed and 350 μl/well of DMSO solution was added. After being mixed, […] of dissolved solution was suctioned to a 96-well plate and the absorbance at 570 nm was detected by an ELISA reader. The reference wavelength was set as 650 nm. A cell standard curve can be made to reckon the cell number. The cell solution was adjusted to have a concentration of 5000, 10000, 25000, 50000, 75000, and 100000 cells/ml by H-DMEM containing 10% FBS then seeded into a 24-well plate, respectively. After 1 day, after the cells were adhered, an MTT cell viability analysis was conducted. Absorbance and cell numbers were used to make a standard curve, such that the cell number could be reckoned from the absorbance. A growth curve of MG-63 cells was made first, and then the cell growth rate could be obtained by dividing the cell viability by that of the control group which was detected by the MTT assay. The result shown in FIG. 9A can be obtained by converting the data from ELISA to a cell number according to the cell growth curve. In FIG. 9A, it is observed that the cell number of MG-63 co-cultured with VK2 is apparently lower than that of the control group. Moreover, the effect of cell growth inhibition becomes obvious with the increasing concentration of VK2. […]"}}}
{"substance": "vitamin K2 [VK2]", "values": [{"measurement": "ALP value compared with control group", "setting": "MG-63 cells [1]; 0.002 mg/mL of VK2", "value": "higher than that of the control group"}, {"measurement": "ALP activity of a single cell", "setting": "MG-63 cells [1]; 0.002 mg/mL of VK2, day 1", "value": "96.7±1.1", "unit": "U/L-30 min-10^4 cells"}, {"measurement": "ALP value", "setting": "MG-63 cells [1]; 0.002 mg/mL of VK2, day 1", "value": "399.9±3.3", "unit": "U/L-30 min"}, {"measurement": "ALP activity of a single cell", "setting": "MG-63 cells [1]; 0.002 mg/mL of VK2, day 3", "value": "62.4±0.9", "unit": "U/L-30 min-10^4 cells"}, {"measurement": "ALP value", "setting": "MG-63 cells [1]; 0.002 mg/mL of VK2, day 3", "value": "410.7±2.7", "unit": "U/L-30 min"}, {"measurement": "ALP value", "setting": "MG-63 cells [1]; 0.002 mg/mL of VK2, day 7", "value": "377.4±1.6", "unit": "U/L-30 min"}, {"measurement": "ALP activity of a single cell", "setting": "MG-63 cells [1]; 0.01 mg/mL of VK2, day 1", "value": "46.4±0.4", "unit": "U/L-30 min-10^4 cells"}, {"measurement": "ALP value", "setting": "MG-63 cells [1]; 0.01 mg/mL of VK2, day 1", "value": "111.0±0.7", "unit": "U/L-30 min"}, {"measurement": "ALP activity of a single cell", "setting": "MG-63 cells [1]; 0.01 mg/mL of VK2, day 3", "value": "19.8±0.1", "unit": "U/L-30 min-10^4 cells"}, {"measurement": "ALP activity of a single cell", "setting": "MG-63 cells [1]; 0.01 mg/mL of VK2, day 7", "value": "8.2±0.0", "unit": "U/L-30 min-10^4 cells"}, {"measurement": "ALP value", "setting": "MG-63 cells [1]; 0.1 mg/mL of VK2, day 3", "value": "112.2±0.3", "unit": "U/L-30 min"}, {"measurement": "ALP value", "setting": "MG-63 cells [1]; 0.1 mg/mL of VK2, day 7", "value": "100.6±0.0", "unit": "U/L-30 min"}, {"measurement": "ALP activity of a single cell", "setting": "MG-63 cells [1]; 1.0 mg/mL of VK2, day 7", "value": "70.4±1.7", "unit": "U/L-30 min-10^4 cells"}, {"measurement": "effect on ALP activity of cells", "setting": "MG-63 cells [2]", "value": "enhance the ALP activity of cells"}, {"measurement": "cell number", "setting": "MG-63 cells [3]; 0.002 mg/mL of VK2, day 1", "value": "4.1±0.1 ×10^4 cells"}, {"measurement": "cell number", "setting": "MG-63 cells [3]; 0.002 mg/mL of VK2, day 3", "value": "6.6±0.1 ×10^4 cells"}, {"measurement": "cell number", "setting": "MG-63 cells [3]; 0.002 mg/mL of VK2, day 7", "value": "14.7±0.1 ×10^4 cells"}, {"measurement": "cell number", "setting": "MG-63 cells [3]; 1 mg/mL of VK2, day 1", "value": "2.0±0.0 ×10^4 cells"}, {"measurement": "cell number", "setting": "MG-63 cells [3]; 1 mg/mL of VK2, day 3", "value": "5.0±0.1 ×10^4 cells"}, {"measurement": "cell number", "setting": "MG-63 cells [3]; 1 mg/mL of VK2, day 7", "value": "2.1±0.1 ×10^4 cells"}, {"measurement": "effect on cell proliferation", "setting": "MG-63 cells [3]; MG-63 co-cultured with VK2, 1, 3, 7 days", "value": "inhibits cell proliferation"}]}
